The results in this text go back to ChEMBL document CHEMBL1201862, “PubChem BioAssay data set” (2004).

Experiment [1] addresses Dual specificity protein phosphatase 3 (Homo sapiens, UniProt P51452). Put plainly: inhibition constants for human DUSP3 – biochemical, colorimetric, SAR follow-up (AID 2004).
The target in experiment [2] is T1, SUMO-activating enzyme (Homo sapiens, UniProt Q9UBT2). Put plainly: blockers of SAE1/SAE2–UBC9 SUMO transfer – biochemical, HTRF, uHTS, primary screen (AID 2006). In kind it is protein-complex assay.
Experiment [3] concerns the target E3 ubiquitin-protein ligase Mdm2 (Homo sapiens, UniProt Q00987). Put plainly: MDM2-luc reporter signal enhancers, multi-concentration potency testing, MDM2 ubiquitin-protein ligase inhibitor program, whole-cell format, luminescence detection, 384-well microplate (AID 1394).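 Further: MDM2 E3 inhibitors raise luminescence so EC50 is for signal enhancement.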 In kind it is functional.
In a further experiment the target is T2, Hexokinase HKDC1 (Homo sapiens, UniProt Q2TB90).
T2 sequence (Q2TB90 whole entry): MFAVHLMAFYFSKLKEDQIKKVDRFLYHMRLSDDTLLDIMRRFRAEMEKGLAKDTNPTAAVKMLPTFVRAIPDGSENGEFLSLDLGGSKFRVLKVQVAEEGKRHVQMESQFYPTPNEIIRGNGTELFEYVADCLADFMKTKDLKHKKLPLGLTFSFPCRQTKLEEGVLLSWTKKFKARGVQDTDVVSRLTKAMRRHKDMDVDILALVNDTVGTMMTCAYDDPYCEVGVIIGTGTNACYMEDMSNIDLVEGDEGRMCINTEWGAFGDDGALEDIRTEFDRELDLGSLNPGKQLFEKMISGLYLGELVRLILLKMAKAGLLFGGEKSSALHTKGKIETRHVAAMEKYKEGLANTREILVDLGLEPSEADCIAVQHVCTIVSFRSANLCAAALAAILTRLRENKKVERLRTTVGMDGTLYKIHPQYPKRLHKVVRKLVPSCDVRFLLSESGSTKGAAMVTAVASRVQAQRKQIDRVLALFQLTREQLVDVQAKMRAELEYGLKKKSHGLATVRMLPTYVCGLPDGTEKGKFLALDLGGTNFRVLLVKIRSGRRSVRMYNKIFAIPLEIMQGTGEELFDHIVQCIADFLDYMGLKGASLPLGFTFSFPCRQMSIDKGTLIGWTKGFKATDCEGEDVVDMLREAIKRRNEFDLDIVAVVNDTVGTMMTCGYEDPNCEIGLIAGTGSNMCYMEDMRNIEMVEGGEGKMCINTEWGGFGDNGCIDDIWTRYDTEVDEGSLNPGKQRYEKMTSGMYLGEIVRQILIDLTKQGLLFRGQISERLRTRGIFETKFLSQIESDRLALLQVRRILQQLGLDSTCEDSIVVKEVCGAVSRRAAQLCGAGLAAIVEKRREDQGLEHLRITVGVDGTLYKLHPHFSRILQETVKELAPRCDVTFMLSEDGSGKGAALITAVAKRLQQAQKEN
Put plainly: inhibition of HKDC1 glucose phosphorylation – biochemical, W721R variant, dose response (AID 504729). The class given is functional.

In experiment [4] the target is T1, SUMO-activating enzyme. Put plainly: blockers of UBC9-mediated SUMO conjugation – biochemical, AlphaScreen, SUMOylation inhibitor project, confirmation (AID 2018). In kind it is functional.
The nature of experiment [5]: microbe, parasite or virus in culture. The following applies: Mycobacterium tuberculosis. In kind it is functional.
Experiment [6] in a line: viability of uninfected HEp-2 cells – cell-based, HTS, cytotoxicity control for RSV inhibitor project, dose response (AID 2410). In kind it is functional. The following applies: human respiratory syncytial virus.
The nature of experiment [7]: viability loss in HeLa cells – cytotoxicity control for MgcRacGAP inhibitor project, dose response (AID 624300). In kind it is functional.
Experiment [8] can be described thus: NIH-3T3 fibroblast cytotoxicity, dose response, cytotoxicity control, cell-based, fluorescence, Alamar Blue, secondary assay (AID 2327).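 Further: NIH-3T3 mouse fibroblasts cultured with fluconazole at 8 µg/mL.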 In kind it is functional.
Experiment [9] is described as follows: cells. In kind it is functional, cell-based.
The target of experiment [10] is T3, Rac GTPase-activating protein 1 (Homo sapiens, UniProt Q9H0H5).
T3 sequence (Q9H0H5 whole entry): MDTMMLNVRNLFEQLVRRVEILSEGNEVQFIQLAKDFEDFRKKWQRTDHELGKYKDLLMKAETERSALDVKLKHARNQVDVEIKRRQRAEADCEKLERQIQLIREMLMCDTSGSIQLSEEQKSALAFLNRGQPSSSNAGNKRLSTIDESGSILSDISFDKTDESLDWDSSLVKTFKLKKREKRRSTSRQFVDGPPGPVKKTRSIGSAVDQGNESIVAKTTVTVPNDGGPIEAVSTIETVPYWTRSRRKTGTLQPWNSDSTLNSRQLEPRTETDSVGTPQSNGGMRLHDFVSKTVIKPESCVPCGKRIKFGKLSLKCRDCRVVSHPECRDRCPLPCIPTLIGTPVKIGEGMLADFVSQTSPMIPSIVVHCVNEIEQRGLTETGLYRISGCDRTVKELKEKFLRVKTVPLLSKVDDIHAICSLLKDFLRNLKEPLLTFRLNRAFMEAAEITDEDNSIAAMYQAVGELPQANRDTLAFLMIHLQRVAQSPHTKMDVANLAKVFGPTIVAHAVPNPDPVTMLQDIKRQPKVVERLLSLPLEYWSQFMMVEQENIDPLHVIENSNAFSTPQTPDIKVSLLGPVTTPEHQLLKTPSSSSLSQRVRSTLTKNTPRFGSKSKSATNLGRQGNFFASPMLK
Description: blockers of MgcRacGAP-driven Rac1 GTP hydrolysis – biochemical, ADP Hunter fluorescence, primary and confirmatory, confirmation (AID 624330). The class given is functional.

A short description of experiment [11]: fluconazole-exposed Candida albicans growth modulators – fluorescence, retest, confirmation (AID 2467). The class given is functional, cell-based.
For experiment [12], the target named is T4, Replicative DNA helicase DnaB (Mycobacterium tuberculosis, UniProt P9WMR3).
T4 sequence (P9WMR3 whole entry): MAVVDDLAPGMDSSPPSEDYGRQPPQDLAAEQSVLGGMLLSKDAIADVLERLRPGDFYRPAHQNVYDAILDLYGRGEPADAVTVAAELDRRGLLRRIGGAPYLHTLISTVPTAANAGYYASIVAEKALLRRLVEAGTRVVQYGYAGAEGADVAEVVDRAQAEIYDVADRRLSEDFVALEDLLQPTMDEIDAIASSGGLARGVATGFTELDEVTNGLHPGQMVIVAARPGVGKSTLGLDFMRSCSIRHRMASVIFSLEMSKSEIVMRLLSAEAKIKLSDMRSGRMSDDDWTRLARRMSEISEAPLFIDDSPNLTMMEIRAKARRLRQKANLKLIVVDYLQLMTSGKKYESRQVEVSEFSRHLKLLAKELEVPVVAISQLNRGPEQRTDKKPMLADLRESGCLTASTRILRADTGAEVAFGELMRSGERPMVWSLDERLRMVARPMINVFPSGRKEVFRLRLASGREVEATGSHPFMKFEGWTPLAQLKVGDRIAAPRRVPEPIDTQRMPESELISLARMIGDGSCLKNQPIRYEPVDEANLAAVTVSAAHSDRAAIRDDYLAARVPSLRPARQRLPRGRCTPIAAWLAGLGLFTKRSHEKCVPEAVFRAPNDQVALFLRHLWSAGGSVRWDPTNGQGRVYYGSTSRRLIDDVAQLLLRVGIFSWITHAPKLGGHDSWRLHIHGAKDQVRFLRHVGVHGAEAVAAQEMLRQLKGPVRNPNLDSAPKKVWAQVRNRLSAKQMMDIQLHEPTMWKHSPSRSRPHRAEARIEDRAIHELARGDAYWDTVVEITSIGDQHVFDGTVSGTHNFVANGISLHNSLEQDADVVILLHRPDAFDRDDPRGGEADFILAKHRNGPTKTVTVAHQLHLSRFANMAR
Put plainly: DnaB intein splicing inhibitors, dose response, biochemical, cell-free fluorescence (AID 449749). In kind it is functional.

For experiment [13], the target named is Cyclin-dependent kinase 5/CDK5 activator 1 (Homo sapiens, UniProt Q00535). Description: blockade of human CDK5 activity – biochemical, cherry-picked samples, set 2, dose response (AID 504545).
Experiment [14] can be described thus: Luminescence Cell-Based Dose Retest to Confirm Inhibitors of Cancer Stem Cells. [Related pubchem assays (depositor defined):AID2717, AID2721]. The class given is functional. The following applies: Homo sapiens.
Experiment [15] has as its target Dual specificity tyrosine-phosphorylation-regulated kinase 1A (Rattus norvegicus, UniProt Q63470). The class given is biochemical, Homo sapiens.
The target of the next experiment is T5, Protein RecA (Mycobacterium tuberculosis, UniProt P9WHJ3).
T5 sequence (P9WHJ3 whole entry): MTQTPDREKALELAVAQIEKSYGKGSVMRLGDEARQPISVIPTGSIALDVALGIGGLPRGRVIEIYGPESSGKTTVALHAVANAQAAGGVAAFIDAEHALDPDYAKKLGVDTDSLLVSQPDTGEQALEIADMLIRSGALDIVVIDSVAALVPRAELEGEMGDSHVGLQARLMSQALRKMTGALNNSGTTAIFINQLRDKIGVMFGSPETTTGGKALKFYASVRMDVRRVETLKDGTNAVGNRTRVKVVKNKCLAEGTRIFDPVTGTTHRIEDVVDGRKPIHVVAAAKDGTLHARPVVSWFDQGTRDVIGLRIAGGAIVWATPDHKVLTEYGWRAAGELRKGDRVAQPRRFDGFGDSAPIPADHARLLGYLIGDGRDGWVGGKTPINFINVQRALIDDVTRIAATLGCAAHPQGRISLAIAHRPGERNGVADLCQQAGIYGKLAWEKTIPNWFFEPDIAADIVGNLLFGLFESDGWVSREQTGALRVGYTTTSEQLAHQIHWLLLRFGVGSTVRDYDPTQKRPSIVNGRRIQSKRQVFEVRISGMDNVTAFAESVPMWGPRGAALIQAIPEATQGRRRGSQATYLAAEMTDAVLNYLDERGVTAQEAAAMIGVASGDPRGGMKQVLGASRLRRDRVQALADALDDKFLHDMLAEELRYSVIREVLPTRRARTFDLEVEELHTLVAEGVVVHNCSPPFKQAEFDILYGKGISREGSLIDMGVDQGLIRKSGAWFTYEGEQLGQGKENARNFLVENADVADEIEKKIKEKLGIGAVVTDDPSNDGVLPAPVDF
Put plainly: Fluorescence Cell-Free Homogeneous Dose Retest to Identify Inhibitors of RecA-Intein Splicing Activity. [Related pubchem assays (depositor defined):AID2097, AID2223, AID489010, AID492950]. The class given is functional.

A short description of experiment [16]: cells. In kind it is functional, cell-based. This is another data set of the same source.

SMILES strings stand for the structures. Active and inactive are the calls of the source. Some results are limits rather than exact numbers.

T1 sequence (Q9UBE0 whole entry): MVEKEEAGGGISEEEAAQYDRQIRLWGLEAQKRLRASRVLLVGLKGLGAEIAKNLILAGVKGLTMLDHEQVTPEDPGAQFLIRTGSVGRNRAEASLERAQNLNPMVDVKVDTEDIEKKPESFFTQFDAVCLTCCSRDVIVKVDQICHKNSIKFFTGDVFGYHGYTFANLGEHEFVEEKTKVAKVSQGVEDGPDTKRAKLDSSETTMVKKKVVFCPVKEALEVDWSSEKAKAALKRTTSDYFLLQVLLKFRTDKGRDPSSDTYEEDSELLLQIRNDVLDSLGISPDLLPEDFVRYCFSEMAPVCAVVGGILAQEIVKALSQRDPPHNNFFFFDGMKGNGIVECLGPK
T1 sequence (Q9UBT2 whole entry): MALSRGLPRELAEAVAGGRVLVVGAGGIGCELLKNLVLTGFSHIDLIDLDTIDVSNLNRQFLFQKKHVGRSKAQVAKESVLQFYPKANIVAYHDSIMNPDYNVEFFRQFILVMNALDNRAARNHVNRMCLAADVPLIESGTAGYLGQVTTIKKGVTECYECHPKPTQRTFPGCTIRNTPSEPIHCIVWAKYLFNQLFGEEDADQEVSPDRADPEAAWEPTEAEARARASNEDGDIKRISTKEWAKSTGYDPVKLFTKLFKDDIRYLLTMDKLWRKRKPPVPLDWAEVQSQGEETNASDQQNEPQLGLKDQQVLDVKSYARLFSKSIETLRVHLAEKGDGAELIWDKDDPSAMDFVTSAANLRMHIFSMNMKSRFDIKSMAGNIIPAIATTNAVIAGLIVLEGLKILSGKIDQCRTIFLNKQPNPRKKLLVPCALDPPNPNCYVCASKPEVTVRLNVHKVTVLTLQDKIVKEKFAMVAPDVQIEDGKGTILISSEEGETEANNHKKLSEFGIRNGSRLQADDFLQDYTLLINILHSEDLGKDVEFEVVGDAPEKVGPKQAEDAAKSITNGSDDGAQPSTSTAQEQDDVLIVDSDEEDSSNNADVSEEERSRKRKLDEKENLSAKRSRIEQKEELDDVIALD
Cyclin-dependent kinase 5/CDK5 activator 1, sequence (Q00535 whole entry): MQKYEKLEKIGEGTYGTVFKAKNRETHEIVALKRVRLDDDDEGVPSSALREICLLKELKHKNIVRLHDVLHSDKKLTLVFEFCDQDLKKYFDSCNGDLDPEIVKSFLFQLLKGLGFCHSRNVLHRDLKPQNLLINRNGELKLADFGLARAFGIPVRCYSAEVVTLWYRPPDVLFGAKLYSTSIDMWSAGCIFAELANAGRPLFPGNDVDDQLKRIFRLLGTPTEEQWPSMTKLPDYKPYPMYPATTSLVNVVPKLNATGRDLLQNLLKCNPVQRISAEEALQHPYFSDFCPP
Cyclin-dependent kinase 5/CDK5 activator 1, sequence (Q15078 whole entry, further chain): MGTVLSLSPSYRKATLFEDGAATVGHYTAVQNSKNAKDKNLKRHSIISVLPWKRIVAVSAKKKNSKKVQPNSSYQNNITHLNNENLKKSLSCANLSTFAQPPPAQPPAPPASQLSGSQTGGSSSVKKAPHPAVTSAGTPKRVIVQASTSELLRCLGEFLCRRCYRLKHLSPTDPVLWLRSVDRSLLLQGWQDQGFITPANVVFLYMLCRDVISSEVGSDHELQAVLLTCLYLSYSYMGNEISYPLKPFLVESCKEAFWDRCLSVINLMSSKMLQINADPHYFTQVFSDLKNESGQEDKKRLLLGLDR
Dual specificity protein phosphatase 3, sequence (P51452 whole entry): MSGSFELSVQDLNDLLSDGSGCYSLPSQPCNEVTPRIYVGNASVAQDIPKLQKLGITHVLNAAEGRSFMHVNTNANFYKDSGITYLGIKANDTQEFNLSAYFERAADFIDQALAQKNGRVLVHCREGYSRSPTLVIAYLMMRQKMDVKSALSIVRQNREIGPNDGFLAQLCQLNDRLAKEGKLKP
E3 ubiquitin-protein ligase Mdm2, sequence (Q00987 whole entry): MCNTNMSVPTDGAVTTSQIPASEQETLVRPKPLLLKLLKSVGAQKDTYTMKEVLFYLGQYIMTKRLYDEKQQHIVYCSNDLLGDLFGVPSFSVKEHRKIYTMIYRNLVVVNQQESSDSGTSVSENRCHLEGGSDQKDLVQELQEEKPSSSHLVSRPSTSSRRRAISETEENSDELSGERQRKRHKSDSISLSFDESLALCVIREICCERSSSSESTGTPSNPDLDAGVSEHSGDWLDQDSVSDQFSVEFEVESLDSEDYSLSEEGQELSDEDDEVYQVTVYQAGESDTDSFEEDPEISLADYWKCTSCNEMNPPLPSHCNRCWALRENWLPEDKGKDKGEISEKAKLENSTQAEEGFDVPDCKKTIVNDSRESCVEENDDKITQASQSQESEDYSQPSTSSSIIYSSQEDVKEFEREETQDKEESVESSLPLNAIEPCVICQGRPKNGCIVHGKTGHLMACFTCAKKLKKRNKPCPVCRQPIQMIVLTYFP

Regarding `Fc1c(F)c(C(F)(F)F)c(F)c(F)c1Oc1cccc2cccnc12`, in [1], the Ki was 122 µM (inactive).
In the case of `COc1cc(NC(=O)c2cnc(N)s2)cc(C(=O)Nc2cccc(C(F)(F)F)c2)c1`, the results for the IC50 on SUMO-activating enzyme [2], on Hexokinase HKDC1 and on SUMO-activating enzyme [4] were 34.5 µM (active), 10.5 µM (active) and 10.8 µM (active), respectively. The EC50 in [3] is recorded as 22.9 µM (not active). Also, the CC50 in experiment [5] is > 40 µM (active); in experiment [6], 23.6 µM (active).
On to `Oc1ccc(/C=N/Nc2ccc(C(F)(F)F)cn2)c(O)c1`, for which the CC50 in [7] was 100 µM (active). Further, the EC50 was > 150 µM (inactive) in experiment [8]; 44.7 µM (active) in the experiment “cells [9]”; > 38 µM (not active) in experiment [11]; 110 µM (inconclusive) on Protein RecA; 27.7 µM (active) in the experiment “cells [16]”. In addition, the IC50 in [10] was 37 µM (active). Further, the AC50 in experiment [12] was 81.4 µM (active); in [13] it was 11.8 µM (active); in experiment [14] it was 8.01 µM (active); in [15], 5.23 µM (active).
